According to the NIST ThermoML archive (doi:10.1016/j.jct.2012.06.020):

Assay: mn = molality of the nth substance listed, in mol/kg
Conditions: 101 kPa, Liquid; for mass density: Vibrating tube method; for speed of sound: OPTIME 1.0 from OPTEL

O=S(=O)([O-])C(F)(F)F.O=S(=O)([O-])C(F)(F)F.O=S(=O)([O-])C(F)(F)F.[La+3] [lanthanum(III) trifluoromethanesulfonate] + C[S+](C)[O-]
Conditions	mass density, 293.15 K [kg/m3]	mass density, 298.15 K [kg/m3]	mass density, 303.15 K [kg/m3]	mass density, 313.15 K [kg/m3]	mass density, 323.15 K [kg/m3]	mass density, 333.15 K [kg/m3]	speed of sound, 298.15 K [m/s]
m1 = 0.01831	1107.63	1102.61	1097.59	1087.57	1077.55	1067.52	1482.3
m1 = 0.0248	1110.28	1105.26	1100.24	1090.22	1080.21	1070.19	1481.7
m1 = 0.03536	1114.62	1109.6	1104.59	1094.58	1084.58	1074.57	1480.7
m1 = 0.04296	1117.75	1112.74	1107.73	1097.73	1087.73	1077.74	1479.9
m1 = 0.05181	1121.43	1116.42	1111.41	1101.41	1091.43	1081.44	1479
m1 = 0.0646	1126.78	1121.77	1116.77	1106.78	1096.81	1086.84	1477.8
m1 = 0.08309	1134.62	1129.61	1124.62	1114.64	1104.68	1094.74	1476
m1 = 0.1003	1142	1136.99	1132	1122.04	1112.1	1102.16	1474.3
m1 = 0.1156	1148.66	1143.66	1138.68	1128.72	1118.8	1108.9	1472.9
m1 = 0.1362	1157.7	1152.71	1147.73	1137.79	1127.88	1117.99	1470.8
m1 = 0.1528	1165.12	1160.13	1155.15	1145.24	1135.35	1125.49	1469.3
